In patent US9278065B2, “Delivery systems for solubilising water-insoluble pharmaceutical active ingredients” (EMS S/A, priority 2007, dated 2016):

Assay: Particle size (Z-average) of the formulation mixed with water 1:50
Format: physicochemical
Description: The formulation according to present invention is prepared when the non-ionic surfactant mixture is thoroughly mixed with the solution of the active ingredient in the water-miscible organic solvent/co-solvent.
The present invention will now be illustrated by the following examples. It is understood, however, that such examples are provided for illustration only, and the invention is not intended to be limited by the examples. The formulation based on the system employed in the examples can be formed by any suitable method known in the art. In the examples the formulation was mixed with water at a ratio of 1:50 formulation: water to generate the system and measure the particle size formed in water. The particle size was measured by the method described in Pharmacopea Forum—2001 vol 27 (4) page 2724.

increase of particle Z-average (10% tioconazole formulation omitting DEGEE, compared with complete formulation containing DEGEE, PEG Oleate, polyethoxylated castor oil) [%] | particle size of emulsion (10% tioconazole formulation omitting polyethoxylated castor oil, diluted 1:50 in water) [nm] | Z-average (0.5% tacrolimus in ethanol with DEGEE / PEG Oleate / polyethoxylated castor oil as per Table 3, diluted 1:50 in water) [nm] | Compound
10 | 450 |  | Clc1ccc(C(Cn2ccnc2)OCc2ccsc2Cl)c(Cl)c1 (stereo not drawn) [Tioconazole]
 |  | 32 | C=CC[C@@H]1/C=C(\C)C[C@H](C)C[C@H](OC)[C@H]2O[C@@](O)(C(=O)C(=O)N3CCCC[C@H]3C(=O)O[C@H](/C(C)=C/[C@@H]3CC[C@@H](O)[C@H](OC)C3)[C@H](C)[C@@H](O)CC1=O)[C@H](C)C[C@@H]2OC [tacrolimus]
